Several values for one entry are separate records, joined by “and”; a condition that tells them apart may be missing. Equal values may be shown once. Entries after “also recorded” stand apart in the source; their conditions may differ. Read-outs that look alike come from different tables or passages of the source.
Tests used:
[1] = tested on: CI-M6PR; assay: Binding assay to biotinylated CI-M6PR (displacement from adsorbed pentamannose 6-phosphate); settings: for stability of affinity in buffer solution / binding affinity to CI-M6PR (in words): 20° C.
Protocol: The binding assays of the M6 Pa were performed using biotinylated CI-M6PR. Briefly, the CI-M6PR, purified on a phosphomannan-sepharose affinity column was biotinylated by N-hydroxysuccinimide biotin. The binding of the biotinylated CI-M6PR(CI-M6PRb) to pentamannose 6-phosphate (PMP) previously adsorbed on a microtitre plate was displaced by increasing concentrations of M6 Pa. The bound CI-M6PRb was then determined using the streptavidin/peroxidase couple and OPD substrate by optical density measurements. In control experiments the method was standardized by determining of the maximal concentration of the PMP adsorbed to the microtitre plate and the CI-M6PRb concentration required to saturate the adsorbed PMP [Jeanjean A et al., Bioorg Med Chem 14: 3575-82, 2006].
The binding assays of the cathD-AMFA-1 were performed using biotinylated CI-M6PR to the same protocol used for AMFA-1 binding assay, as detailed in section 1.2.

[2] = format: in vitro ADME
Protocol: (§1) Previous results have shown that a complex cathepsin D/anti-cathepsin D antibody was specifically internalised by CI-M6PR in normal human fibroblasts [Laurent-Matha V et al., J Cell Sci. 111: 2539-49, 1998]. The complex was here detected by immunofluorescence staining.
The binding affinity of AMFA-1, AMFA-2, AMFA-3 and AMFA-5 to CI-M6PR was determined at 20° C. (A) or in the presence of 75% human serum at 37° C. […] Methods are identical to 1.8 section.

[3] = FIG.15
Protocol: Table printed on a drawing sheet, FIG.15
(A) and in human serum (B).
First reader's note: Stability (%) matches the CI-M6PR binding affinity remaining at the last time point of incubation in human serum in the plot printed below the table.

[4] = tested on: MCF7; assay: Cytotoxicity on breast cancer cell line MCF7; format: cell-based, human; settings: data not shown
[5] = tested on: MDA-MB-231; assay: Cytotoxicity on breast cancer cell line MDA-MB-231; format: cell-based, human; settings: data not shown
[6] = target: T1, CI-M6PR (Homo sapiens, UniProt P11717); format: cell-based; settings: pre-incubation with 10 mM
T1 construct: endogenous in cells; host or cells: normal human fibroblasts
Protocol: (§2) As observed at light microscopy, 100 ng/mL neoIDUA was already internalised by MPSI fibroblasts from Scheie patient after 3 h incubation (FIG. 17 B-E). […] Glyceraldehyde 3-phosphate dehydrogenase (GAPDH) immunodetection was used as an internal control for total protein loading.

[7] = tested on: human normal fibroblast IMR-90 cell line; assay: Cytotoxicity on human normal fibroblast cell line; format: cell-based; settings: FIG. 14C
[8] = target: T1, CI-M6PR; assay: Endocytosis of cathepsin D/anti-cathepsin D antibody complex via CI-M6PR in normal human fibroblasts (immunofluorescence); format: cell-based; settings: cells pre-incubated with 10 mM; control cells 80%
Description: as §1

[9] = tested on: Homozygous IDUA −/− mice; assay: Therapeutic efficacy in mucopolysaccharidosis I (MPSI) mouse model, urinary GAG; format: in vivo; settings: 0.16 mg/kg body weight/week intravenously, 6 weeks; Mean ± SD
Protocol: Homozygous IDUA −/− mice (6-8 week-old) were treated intravenously with vehicle alone (control) or with 0.16 mg neoIDUA/kg body weight/week for 6 weeks. The secreted GAG were assayed in urine after 6 injections and normalized to urine creatinine concentrations using methods previously described [Barbosa et al., Glycobiology Adv. Access 13: 647-53, 2003].

[10] = tested on: MPSI fibroblasts from Scheie patient; assay: neoIDUA cell internalisation in MPSI fibroblasts; format: cell-based, human
Protocol: as §2

[11] = tested on: Hurler fibroblasts; assay: Viability of Hurler fibroblasts (MTT assay); format: cell-based, human; settings: 100-500 ng/mL
Protocol: Cell viability was evaluated by MTT assay [Maynadier et al. FASEB J, 22: 671-81, 2008].

[12] = tested on: Hurler patient fibroblasts; assay: Secreted GAG in culture medium of Hurler patient fibroblasts (Blyscan kit); format: cell-based, human

T1 sequence (P11717 41-2491): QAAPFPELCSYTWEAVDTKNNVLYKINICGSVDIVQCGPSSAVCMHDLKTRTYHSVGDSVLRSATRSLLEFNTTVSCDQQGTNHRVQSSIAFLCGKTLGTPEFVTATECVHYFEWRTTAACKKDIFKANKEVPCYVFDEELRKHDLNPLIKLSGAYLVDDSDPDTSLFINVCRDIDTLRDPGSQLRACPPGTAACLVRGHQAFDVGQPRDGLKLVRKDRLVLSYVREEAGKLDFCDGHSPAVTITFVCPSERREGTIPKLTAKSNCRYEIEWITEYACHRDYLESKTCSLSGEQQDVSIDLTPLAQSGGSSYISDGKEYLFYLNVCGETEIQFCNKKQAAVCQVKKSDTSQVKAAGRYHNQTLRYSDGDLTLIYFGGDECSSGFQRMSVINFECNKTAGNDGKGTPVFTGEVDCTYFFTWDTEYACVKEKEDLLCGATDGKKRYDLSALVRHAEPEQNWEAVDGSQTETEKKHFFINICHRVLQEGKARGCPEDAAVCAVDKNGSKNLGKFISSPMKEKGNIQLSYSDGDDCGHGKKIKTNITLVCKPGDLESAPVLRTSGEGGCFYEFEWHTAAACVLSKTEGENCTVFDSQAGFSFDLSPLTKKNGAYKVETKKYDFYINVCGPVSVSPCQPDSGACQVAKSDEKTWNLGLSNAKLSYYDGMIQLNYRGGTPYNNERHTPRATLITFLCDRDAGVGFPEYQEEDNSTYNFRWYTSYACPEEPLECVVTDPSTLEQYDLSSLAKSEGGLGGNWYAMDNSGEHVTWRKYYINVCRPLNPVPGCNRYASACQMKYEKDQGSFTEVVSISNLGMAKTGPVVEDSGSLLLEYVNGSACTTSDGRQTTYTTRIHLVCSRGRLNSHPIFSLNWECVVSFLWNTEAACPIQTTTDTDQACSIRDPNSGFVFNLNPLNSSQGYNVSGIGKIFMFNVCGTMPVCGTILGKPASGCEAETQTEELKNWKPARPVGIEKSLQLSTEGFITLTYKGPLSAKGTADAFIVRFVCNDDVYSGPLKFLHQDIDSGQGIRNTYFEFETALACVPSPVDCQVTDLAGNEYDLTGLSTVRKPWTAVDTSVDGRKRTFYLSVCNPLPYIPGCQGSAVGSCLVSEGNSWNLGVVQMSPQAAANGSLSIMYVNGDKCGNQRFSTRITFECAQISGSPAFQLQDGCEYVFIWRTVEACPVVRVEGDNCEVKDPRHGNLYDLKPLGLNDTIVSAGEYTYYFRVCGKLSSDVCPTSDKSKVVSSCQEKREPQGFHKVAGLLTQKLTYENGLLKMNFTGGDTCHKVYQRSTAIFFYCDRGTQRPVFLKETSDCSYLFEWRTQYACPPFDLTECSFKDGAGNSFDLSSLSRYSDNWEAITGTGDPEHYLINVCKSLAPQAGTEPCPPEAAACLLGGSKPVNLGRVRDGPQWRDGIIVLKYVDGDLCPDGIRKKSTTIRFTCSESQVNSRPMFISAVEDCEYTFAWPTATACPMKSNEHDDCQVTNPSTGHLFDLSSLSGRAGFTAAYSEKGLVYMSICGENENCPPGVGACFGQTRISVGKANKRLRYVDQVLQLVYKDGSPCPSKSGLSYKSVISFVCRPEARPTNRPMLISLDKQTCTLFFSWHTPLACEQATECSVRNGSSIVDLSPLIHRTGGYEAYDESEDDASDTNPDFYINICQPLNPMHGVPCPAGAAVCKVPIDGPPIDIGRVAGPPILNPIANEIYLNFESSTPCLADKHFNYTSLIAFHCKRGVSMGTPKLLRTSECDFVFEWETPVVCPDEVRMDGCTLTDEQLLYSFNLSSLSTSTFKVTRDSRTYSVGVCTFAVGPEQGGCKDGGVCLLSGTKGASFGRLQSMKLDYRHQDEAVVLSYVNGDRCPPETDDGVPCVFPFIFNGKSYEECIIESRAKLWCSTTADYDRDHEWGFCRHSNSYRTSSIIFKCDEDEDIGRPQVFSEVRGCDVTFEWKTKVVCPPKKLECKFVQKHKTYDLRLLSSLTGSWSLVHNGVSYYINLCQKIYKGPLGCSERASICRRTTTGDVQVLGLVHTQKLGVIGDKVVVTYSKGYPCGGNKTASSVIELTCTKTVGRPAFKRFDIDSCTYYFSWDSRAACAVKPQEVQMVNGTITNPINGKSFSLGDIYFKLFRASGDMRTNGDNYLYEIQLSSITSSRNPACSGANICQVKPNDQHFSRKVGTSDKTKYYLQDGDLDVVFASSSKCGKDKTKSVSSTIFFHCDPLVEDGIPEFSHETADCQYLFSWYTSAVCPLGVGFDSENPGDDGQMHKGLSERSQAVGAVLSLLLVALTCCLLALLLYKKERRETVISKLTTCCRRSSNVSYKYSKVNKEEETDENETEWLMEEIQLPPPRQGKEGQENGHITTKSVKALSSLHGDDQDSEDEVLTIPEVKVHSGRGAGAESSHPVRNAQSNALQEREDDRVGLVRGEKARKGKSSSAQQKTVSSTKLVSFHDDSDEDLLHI

5-hydrazinocarbonylpentyl 6-phosphate-α-D-mannopyranoside disodium salt [M6P-hexanehydrazide, reference compound]
stability of affinity in buffer solution [1]: stable affinity | decrease of affinity in human serum ([2]; 75% human serum at 37° C., after 7-8 h): ~50% | decrease of affinity in human serum ([2]; 75% human serum at 37° C., after 16 h): 84%

5-hydrazinocarbonylpentyl 6-phosphate-α-D-mannopyranoside disodium salt [M6P-hexanehydrazide]
Stability (%) [3]: 16%

NNC(=O)CCCCCO[C@H]1O[C@H](CCP(=O)(O)O)[C@@H](O)[C@H](O)[C@@H]1O.[Na].[Na] [AMFA-1, 5-hydrazinocarbonylpentyl 6-deoxy-6-dihydroxyphosphinylmethyl-α-D-mannopyranoside disodium salt]
toxicity in human breast cancer cell line MCF7 [4]: no toxicity | toxicity in human breast cancer cell line MDA [5]: no toxicity | binding affinity to CI-M6PR (in words) [1]: high binding affinity | binding affinity for CI-M6PR (comparison in words) ([1]; FIG. 1, FIG. 14): identical to those of phosphonate 1 alone | stability in human serum (in words) ([2]; 75% (v/v) human serum, disodium salt): identical to those of phosphonate 1 alone; also recorded: stable | effect on uptake of neoIDUA by the cells [6]: totally prevented | toxicity in human fibroblasts [7]: absence of toxicity

NNC(=O)CCn1cc(CO[C@H]2O[C@H](CCP(=O)(O)O)[C@@H](O)[C@H](O)[C@@H]2O)nn1.[Na].[Na] [AMFA-2, Disodium salt of (Hydrazinocarbonylethyl)-1H-1,2,3-triazol-4-yl-methyl 6-Deoxy-6-dihydroxyphosphinylmethylene-α-D-mannopyranoside]
Stability (%) [3]: 90% | binding affinity to CI-M6PR (in words) [1]: high binding affinity | stability in human serum (in words) [2]: stable

NOCCO[C@H]1O[C@H](CCP(=O)(O)O)[C@@H](O)[C@H](O)[C@@H]1O.[Na].[Na] [AMFA-3, Disodium salt of 2-(aminoxy)ethyl 6-deoxy-6-dihydroxyphosphinylmethylene-α-D-mannopyranoside]
Stability (%) [3]: 91% | binding affinity to CI-M6PR (in words) [1]: high binding affinity | stability in human serum (in words) [2]: stable

COC(=O)CCCCCO[C@H]1O[C@H](CC(C(=O)[O-])C(=O)[O-])[C@@H](O)[C@H](O)[C@@H]1O.[Na+].[Na+] [AMFA-5, [5-methoxycarbonylpentyl 6,7-dideoxy-7-(carboxy)-α-D-manno-octopyranoside]uronate disodium salt]
Stability (%) [3]: 90% | binding affinity to CI-M6PR (in words) [1]: high binding affinity | stability in human serum (in words) [2]: stable

O=C[C@@H](O)[C@@H](O)[C@H](O)[C@H](O)COP(=O)(O)O [M6P, mannose 6-phosphate, reference compound]
cells that internalized the cathepsin D/anti-cathepsin D antibody complex [8]: 30% | stability of affinity in buffer solution [1]: stable affinity | decrease of affinity in human serum ([2]; human): ~50% | decrease of affinity in human serum ([2]; human, 16 h): 100% | effect on uptake of neoIDUA by the cells [6]: strongly decreased

O=C[C@@H](O)[C@@H](O)[C@H](O)[C@H](O)COP(=O)(O)O [M6P, mannose 6-phosphate]
Stability (%) [3]: 0%

natural cathepsin D: human lysosomal enzyme, high affinity ligand for CI-M6PR with bisphosphorylated chains
Kd ([1]; FIG. 16A, read-out: affinity for CI-M6PR (Kd)): 15 nM

B1: IDUA-AMFA-1: recombinant α-L-iduronidase from baculovirus/Sf9 cells coupled to AMFA-1 (conjugate, UniProt P35475 28-653, looked up)
Alpha-L-iduronidase: APHLVHVDAARALWPLRRFWRSTGFCPPLPHSQADQYVLSWDQQLNLAYVGAVPHRGIKQVRTHWLLELVTTRGSTGRGLSYNFTHLDGYLDLLRENQLLPGFELMGSASGHFTDFEDKQQVFEWKDLVSSLARRYIGRYGLAHVSKWNFETWNEPDHHDFDNVSMTMQGFLNYYDACSEGLRAASPALRLGGPGDSFHTPPRSPLSWGLLRHCHDGTNFFTGEAGVRLDYISLHRKGARSSISILEQEKVVAQQIRQLFPKFADTPIYNDEADPLVGWSLPQPWRADVTYAAMVVKVIAQHQNLLLANTTSAFPYALLSNDNAFLSYHPHPFAQRTLTARFQVNNTRPPHVQLLRKPVLTAMGLLALLDEEQLWAEVSQAGTVLDSNHTVGVLASAHRPQGPADAWRAAVLIYASDDTRAHPNRSVAVTLRLRGVPPGPGLVYVTRYLDNGLCSPDGEWRRLGRPVFPTAEQFRRMRAAEDPVAAAPRPLPAGGRLTLRPALRLPSLLLVHVCARPEKPPGQVTRLRALPLTQGQLVLVWSDEHVGSKCLWTYEIQFSQDGKAYTPVSRKPSTFNLFVFSPDTGAVSGSYRVRALDYWARPGPFSDPVPYLEVPVPRGPPSPGNP
modifications: coupled to AMFA-1
Secreted GAG concentrations/creatinine concentrations in urine [9]: 59.8 % control and 59.8 ± 9.0 % control | internalisation by MPSI fibroblasts (light microscopy) ([10]; 100 ng/mL, 3 h incubation, Scheie patient): internalised | internalization in cell extracts (Western Blot) ([10]; after 24 h incubation): demonstrated | toxicity on Hurler fibroblasts [11]: not toxic | cell viability ([11]; 72 h): slightly potentiate cell viability | Secreted GAG concentrations in culture medium ([12]; 24 h treatment, control 0.018): 0.009 µg/mL | Secreted GAG concentrations in culture medium ([12]; 48 h treatment, control 0.022): 0.016 µg/mL | Secreted GAG concentrations in culture medium ([12]; 72 h treatment, control 0.032): 0.018 µg/mL | reduction of GAG secretion ([12]; from 24 to 72 h): up to 50%

— patent US8962573B2 (INSERM (Institut National de la Sante et de la Recherche …, priority 2009, dated 2015)
